Measurements: patent US10870875B2, “Metalloprotein compositions” (Commonwealth Scientific and Industrial Research Organisation, priority 2014, dated 2020)
Where a chain is given by its changes, count along the chain named.

Columns and labels:
[1] = target: T1, Apis mellifera AmelF3 (SEQ ID NO: 39) variant Tyr76His (Y76H) (Apis mellifera, UniProt A0ACM8QI31, Y95H); experiment: Binding of haem b to AmelF3 Tyr76His; details: UV/Vis, in solution and film
T1 construct: solution and film
T1 sequence (A0ACM8QI31 20-335 Y95H): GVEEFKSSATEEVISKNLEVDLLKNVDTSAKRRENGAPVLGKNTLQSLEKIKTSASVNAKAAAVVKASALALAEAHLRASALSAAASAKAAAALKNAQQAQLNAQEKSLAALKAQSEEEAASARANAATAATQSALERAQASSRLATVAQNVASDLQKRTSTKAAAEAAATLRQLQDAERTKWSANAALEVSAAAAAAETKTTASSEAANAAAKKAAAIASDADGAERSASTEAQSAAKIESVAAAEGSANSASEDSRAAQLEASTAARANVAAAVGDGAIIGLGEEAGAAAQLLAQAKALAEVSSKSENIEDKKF
Description: (§1) Site directed mutagenesis of honeybee silk proteins was carried using methods known to the person skilled in the art. For example, to generate AmelF3 Tyr76Ala, the forward primer 5′-[…]-3′ (SEQ ID NO: 80) with the corresponding reverse primer was employed and site directed mutagenesis was carried out using Pfx 50 DNA polymerase from Invitrogen following the Pfx50 manufactures instructions. All AmelF3 mutants were expressed and purified using a similar procedure as the unmodified AmelF3 silk protein. To generate AmelF3 Tyr76His, the forward primer 5′-[…]-3′ (SEQ ID NO: 81) with the corresponding reverse primer was employed. To generate AmelF3 Ala97His, the forward primer 5′-[…]-3′ (SEQ ID NO: 82) was used.
The present inventors also mutated Tyr76 to a histidine and investigated the effect the single amino acid substitution had on binding to haem b. […] The sharp peak observed at around 400 nm is indicative of the coordination of an amino acid residue to the iron haem centre.
A coordinating His residue (His97) was introduced into AmelF3 with Y76H substitution in the a-position of the coiled-coil.

[2] = target: T2, Apis mellifera AmelF3 (SEQ ID NO: 39) variant Y76A A97H (Apis mellifera, UniProt A0ACM8QI31, A116H/Y95A); experiment: Binding of haem to AmelF3 Y76A A97H; details: sharp Soret peak at 413 nm
T2 sequence (A0ACM8QI31 20-335 Y95A/A116H): T1 sequence (A0ACM8QI31 20-335 Y95H) with H76A, A97H
Description: as §1
A coordinating His residue was introduced into AmelF3 with Y76A in the a-position of the coiled-coil.

[3] = target: T3, Apis mellifera AmelF3 (SEQ ID NO: 39) variant Tyr76Ala (Apis mellifera, UniProt A0ACM8QI31, Y95A); experiment: Binding of chelates to AmelF3 Tyr76Ala sponges or films; details: sponge washed with aqueous methanol, qualitative
T3 construct: sponge or film
T3 sequence (A0ACM8QI31 entry or part of it Y95A): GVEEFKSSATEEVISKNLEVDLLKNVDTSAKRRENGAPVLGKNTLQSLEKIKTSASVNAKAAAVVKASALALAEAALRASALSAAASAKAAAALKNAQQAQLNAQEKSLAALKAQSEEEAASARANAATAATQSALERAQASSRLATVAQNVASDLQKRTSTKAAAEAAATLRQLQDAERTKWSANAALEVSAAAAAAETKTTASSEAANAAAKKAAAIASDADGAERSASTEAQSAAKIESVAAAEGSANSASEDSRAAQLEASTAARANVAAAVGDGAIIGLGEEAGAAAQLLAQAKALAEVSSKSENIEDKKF
Description: as §1
To test whether Tyr76 was indeed the coordinating ligand, the present inventors replaced Tyr76 with an alanine using site directed mutagenesis of the AmelF3 silk gene.

For C=CC1=C(C)c2cc3[nH]c(cc4nc(cc5[nH]c(cc1n2)c(C)c5CCC(=O)O)C(CCC(=O)O)=C4C)c(C)c3C=C.[Fe] [haem b], the “binding to silk protein (in words)” value [1] was “bound haem b via a co-ordinate bond”, the “haem coordination (in words)” value [2] was “indicative of histidine coordination” and the “binding to silk protein (in words)” value [3] was “bound to the silk protein, the metal ion was not coordinated to the polypeptide”.
